Source: article PMC10934158, “Constituents of Chimaphila japonica and Their Diuretic Activity” (Molecules, 2024)
Where “and” joins values, the source holds several entries; their conditions need not be identical. Identical values can stand only once. Like-named read-outs stand apart in the source and are kept apart here. Marks after values point to notes of the source that are not given here.

Legend:
Format in all cases: cell-based
MDCK cells = assay: MTT cytotoxicity assay on MDCK cells; settings: 100 µmol/L, 24 h incubation, mean ± SD of three replicates; for inhibition at 100 µM: Canis lupus familiaris, read-out: Growth Inhibition Rate (%)
Experimental: First, we used the MTT method to examine the cytotoxicity of the compounds (1–12) on MDCK cells at a concentration of 100 µmol/L, and the results are shown in Table 5.
Each compound was evaluated for cytotoxicity on DMCK cells using MTT assays. A 96-well plate containing 1 × 10^4 cells per well was seeded with logarithmic growth-phase DMCK cells, which were then cultured for 24 h in a cell culture incubator. After that, the culture medium was changed to one that included medication (100 µmol/L for the treatment groups, 100 µmol/L for the control group, or 100 µmol/L for the positive control group). In total, 100 µL of the appropriate solution was added to each well, and they were then incubated for a further 24 h. After that, culture media were taken out and changed for a DMEM solution that included 20 µL of MTT (5 mg/mL). After incubating for 4 h, the liquid in each well was removed and replaced with 150 µL of DMSO, which was shaken for 10 min to ensure thorough mixing. The absorbance at 490 nm was measured to determine the optical density (OD) of each well. The cell growth inhibition rate was calculated as follows: cell growth inhibition rate (%) = (ODBlank − ODExperimental)/ODBlank × 100%.

[1] = tested on: Na^+ transport in MDCK cells; assay: In vitro diuretic activity assay: Na+ transport across MDCK cells in Transwell chamber; settings: for inhibition at 100 µM: Canis lupus familiaris; for inhibition at 100 µM / Transport Inhibition Rate (%) Na^+: compounds 100 µmol/L, hydrochlorothiazide 200 µmol/L, mean ± SD of three replicates; for Diuretic activity (overall, in words): in vitro Na^+ and Cl^− transport bioassays
Experimental: (§1) Generally, the transport of Na^+ and Cl^− plays an essential role in glomerular filtration and tubular reabsorption.
(§2) Log-phase MDCK cells were seeded in the upper chambers of Transwell plates (4 × 10^4 cells/well), and 800 µL of complete culture medium was added to the lower chambers. After 24 h of incubation at 37 ℃, the electrical resistance of the upper chamber cells was measured one by one (R = (Rcell − Rblank) × 0.04π). When the electrical resistance of the upper chamber cells reached ≥ 300 Ω cm^2, the upper chamber medium was removed and replaced with the drug solution. The blank group (given normal saline), experimental group (1, 4–12, 100 µmol/L), and hydrochlorothiazide group (200 µmol/L) were set, and each well was treated with 200 µL of the corresponding solution. The cells were then further incubated for 24 h. After that, the upper and lower chamber fluids were removed, and 200 µL of NaCl solution (21 mg/mL) was added to the upper chamber, while 800 µL of DMEM was added to the lower chamber for continued incubation. At 1, 2, and 3 h, 50 µL of the lower chamber fluid was taken, and the OD values were measured using Na^+ and Cl^− detection kits. The transport inhibition rate (%) was calculated as follows: transport inhibition rate (%) = (ODblank − ODexperimental)/ODblank × 100%.

[2] = tested on: Cl^− transport in MDCK cells; assay: In vitro diuretic activity assay: Cl− transport across MDCK cells in Transwell chamber; settings: for inhibition at 100 µM: Canis lupus familiaris, read-out: Transport Inhibition Rate (%) Cl^−; for Inhibitory activity on Cl^− transport compared to blank group (in words): 100 µmol/L, significance vs blank group
Experimental: as §1, §2

[3] = MDCK Transwell, read-out: Transport Inhibition Rate (%) Na^+
[4] = MDCK Transwell, compounds 100 µmol/L, hydrochlorothiazide 200 µmol/L, mean ± SD of three replicates
[5] = MDCK, read-out: Transport Inhibition Rate (%) Na^+, MDCK Transwell

Compound | inhibition at 100 µM (MDCK cells) | inhibition at 100 µM [1, 5] | inhibition at 100 µM ([2]; MDCK) | Transport Inhibition Rate (%) Na^+ ([1]; MDCK Transwell) | further results
Cc1cc(O)ccc1O[C@@H]1O[C@H](CO)[C@@H](O)[C@H](O)[C@H]1O [Compound 6, isohomoarbutin] | < 0% | – | – | – | inhibition at 100 µM [1, 3]: 10.2 ± 1.24%; inhibition at 100 µM [2, 4]: 12.2 ± 1.33%
C/C(=C\Cc1c(O)ccc(O[C@H]2O[C@@H](CO)[C@H](O)[C@@H](O)[C@@H]2O)c1C)CO [Compound 5, 3-[(E)-4-hydroxy-3-methyl-2-butenyl]-4-hydroxy-2-methylphenyl-O-β-D-glucopyranoside] | 4.08 ± 0.03% | – | – | – | inhibition at 100 µM [1, 3]: 7.61 ± 0.71%; Inhibitory activity on Cl^− transport compared to blank group (in words) [2]: good inhibitory activity; inhibition at 100 µM [2, 4]: 4.57 ± 0.65%
C[C@@H]1O[C@@H](Oc2c(-c3ccc(O)c(O)c3)oc3cc(O)cc(O)c3c2=O)[C@H](O)[C@H](O)[C@H]1O [Compound 8, quercitrin] | < 0% | 18.5 ± 1.02% | 0.65 ± 1.45% | – | –
O=c1c(O[C@@H]2O[C@H](CO)[C@@H](O)[C@H](O)[C@H]2O)c(-c2ccc(O)c(O)c2)oc2cc(O)cc(O)c12 [Compound 9, isoquercitrin] | < 0% | 6.22 ± 0.53% | -8.36 ± 2.6% | – | –
Cc1cc(O)ccc1O[C@H]1O[C@@H](CO)[C@H](O[C@H]2O[C@@H](CO)[C@H](O)[C@@H](O)[C@@H]2O)[C@@H](O)[C@@H]1O [Compound 2, 4′-O-β-D-glucopyranosyl-isohomoarbutin] | 29.48 ± 0.12% | – | – | – | –
NS(=O)(=O)c1cc2c(cc1Cl)NCNS2(=O)=O [Hyd, hydrochlorothiazide, reference compound] | < 0% | – | – | 39.74 ± 0.64 ^e % | Na^+ transport inhibition rate at 1 h ([1]; Figure 3): 27.91%; Transport Inhibition Rate (%) Cl^− [2, 4]: 23.42 ± 0.87 ^e %
O=c1c(O)c(-c2ccc(O)cc2)oc2cc(O)cc(O)c12 [Compound 11, kaempferol] | < 0% | > 20% | 27.7 ± 1.18% | 28.81± 1.04 ^e % | Na^+ transport suppression rate at 3 h compared with hydrochlorothiazide (in words) ([1]; 3 h, Figure 3): exceeds that of hydrochlorothiazide; Diuretic activity (overall, in words) [1]: potent diuretic activity
(1R,3R,4R)-3-methylcyclohexanol β-D-glucopyranoside [Compound 4] | – | – | – | higher than 20% and 21.13 ± 0.89 ^e % | Growth Inhibition Rate (%) (MDCK cells): 4.89 ± 0.05%; Diuretic activity (overall, in words) [1]: potent diuretic activity; Transport Inhibition Rate (%) Cl^− [2, 4]: 12.23 ± 0.18 ^e %
O=c1c(O[C@@H]2O[C@@H](CO)[C@H](O)[C@H]2O)c(-c2ccc(O)cc2)oc2cc(O)cc(O)c12 [Compound 12, juglanin] | < 0% | 14.2 ± 0.69% | 3.27 ± 0.31% | – | Inhibitory activity on Cl^− transport compared to blank group (in words) [2]: general inhibitory activity
Cc1cc(O)ccc1O[C@H]1O[C@@H](CO)[C@H](O)[C@@H](O[C@H]2O[C@@H](CO)[C@H](O)[C@@H](O)[C@@H]2O)[C@@H]1O [Compound 1, 3′-O-β-D-glucopyranosyl-isohomoarbutin] | 4.89 ± 0.05% | – | – | – | inhibition at 100 µM [1, 3]: -11.7 ± 1.14%; inhibition at 100 µM [2, 4]: 9.44 ± 0.78%
O=c1c(O)c(-c2ccc(O)c(O)c2)oc2cc(O)cc(O)c12 [Compound 7, quercetin] | < 0% | > 20% | 20.7 ± 0.74% | 35.95 ± 1.42 ^e % | Na^+ transport inhibition rate at 1 h ([1]; Figure 3): more than 30.24%; Diuretic activity (overall, in words) [1]: potent diuretic activity; Cl^− transport inhibition rate at peak, second hour ([2]; second hour (peak), Figure 4): higher than 20%
Cc1cc(O)c(-c2cc(O[C@@H]3O[C@H](CO)[C@@H](O)[C@H](O)[C@H]3O)c(C)cc2O)cc1O[C@@H]1O[C@H](CO)[C@@H](O)[C@H](O)[C@H]1O [Compound 3, 5-5′-dehydro-di (2-methyl-4-hydroxy-phenyl-1-O-β-D-glucopyranoside)] | 23.31 ± 0.13% | – | – | – | –
O=c1c(O[C@@H]2O[C@H](CO)[C@H](O)[C@H](O)[C@H]2O)c(-c2ccc(O)c(O)c2)oc2cc(O)cc(O)c12 [Compound 10, hyperoside] | < 0% | 1.82 ± 0.81% | -13.2 ± 1.89% | – | –
